The supplement of paper PMC10307832

Experiments:
Test in all cases: relative viability (nuclei count vs DMSO), 5 days (fraction); higher = more cells survive
BEN = tested on: BEN
How it was run: (§1)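 Relative viability is defined as nuclei in treated wells over nuclei in vehicle wells. Duplicate plates were run and medians reported. Lung cancer cell lines in 1536-well plates were dosed by pin tool one day after seeding, with one drug or with a fixed anchor-drug dose plus five library-drug doses (not always all listed) in √10 steps, and nuclei were counted after 5 days.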

EKVX = tested on: EKVX
How it was run: as §1

HARA = tested on: HARA
How it was run: as §1

HCC-366 = tested on: HCC-366
How it was run: as §1

HCC-827 = tested on: HCC-827
How it was run: as §1

LC-2-ad = tested on: LC-2-ad
How it was run: as §1

LOU-NH91 = tested on: LOU-NH91
How it was run: as §1

NCI-H1355 = tested on: NCI-H1355
How it was run: as §1

NCI-H1437 = tested on: NCI-H1437
How it was run: as §1

NCI-H1734 = tested on: NCI-H1734
How it was run: as §1

NCI-H1792 = tested on: NCI-H1792
How it was run: as §1

NCI-H2009 = tested on: NCI-H2009
How it was run: as §1

NCI-H2087 = tested on: NCI-H2087
How it was run: as §1

NCI-H2170 = tested on: NCI-H2170
How it was run: as §1

NCI-H2228 = tested on: NCI-H2228
How it was run: as §1

NCI-H2405 = tested on: NCI-H2405
How it was run: as §1

NCI-H596 = tested on: NCI-H596
How it was run: as §1

NCI-H647 = tested on: NCI-H647
How it was run: as §1

NCI-H661 = tested on: NCI-H661
How it was run: as §1

SK-LU-1 = tested on: SK-LU-1
How it was run: as §1

SK-MES-1 = tested on: SK-MES-1
How it was run: as §1

NC(=O)Nc1cc(-c2cccc(F)c2)sc1C(=O)N[C@H]1CCCNC1 [AZD7762] + C[C@@H](Oc1cc(-c2cnn(C3CCNCC3)c2)cnc1N)c1c(Cl)ccc(F)c1Cl [Crizotinib] (partner 1 µM)
relative viability (BEN; first compound 0.01 µM): 0.911
relative viability (BEN; first compound 0.03162 µM): 0.924
relative viability (BEN; first compound 0.1 µM): 0.827
relative viability (BEN; first compound 0.3162 µM): 0.859
relative viability (BEN; first compound 1 µM): 0.616
relative viability (EKVX; first compound 0.01 µM): 0.875
relative viability (EKVX; first compound 0.03162 µM): 1.03
relative viability (EKVX; first compound 0.1 µM): 0.874
relative viability (EKVX; first compound 0.3162 µM): 0.798
relative viability (EKVX; first compound 1 µM): 0.412
relative viability (HARA; first compound 0.01 µM): 1.11
relative viability (HARA; first compound 0.03162 µM): 0.98
relative viability (HARA; first compound 0.1 µM): 0.894
relative viability (HARA; first compound 0.3162 µM): 1.01
relative viability (HARA; first compound 1 µM): 0.25
relative viability (HCC-366; first compound 0.01 µM): 0.678
relative viability (HCC-366; first compound 0.03162 µM): 0.478
relative viability (HCC-366; first compound 0.1 µM): 0.542
relative viability (HCC-366; first compound 0.3162 µM): 0.323
relative viability (HCC-366; first compound 1 µM): 0.0525
relative viability (HCC-827; first compound 0.01 µM): 0.948
relative viability (HCC-827; first compound 0.03162 µM): 0.904
relative viability (HCC-827; first compound 0.1 µM): 0.933
relative viability (HCC-827; first compound 0.3162 µM): 0.965
relative viability (HCC-827; first compound 1 µM): 0.843
relative viability (LC-2-ad; first compound 0.01 µM): 0.551
relative viability (LC-2-ad; first compound 0.03162 µM): 0.483
relative viability (LC-2-ad; first compound 0.1 µM): 0.52
relative viability (LC-2-ad; first compound 0.3162 µM): 0.522
relative viability (LC-2-ad; first compound 1 µM): 0.295
relative viability (LOU-NH91; first compound 0.01 µM): 0.764
relative viability (LOU-NH91; first compound 0.03162 µM): 0.731
relative viability (LOU-NH91; first compound 0.1 µM): 0.746
relative viability (LOU-NH91; first compound 0.3162 µM): 0.76
relative viability (LOU-NH91; first compound 1 µM): 0.546
relative viability (NCI-H1355; first compound 0.01 µM): 1.02
relative viability (NCI-H1355; first compound 0.03162 µM): 1.02
relative viability (NCI-H1355; first compound 0.1 µM): 1.01
relative viability (NCI-H1355; first compound 0.3162 µM): 1.14
relative viability (NCI-H1355; first compound 1 µM): 1.03
relative viability (NCI-H1437; first compound 0.01 µM): 0.955
relative viability (NCI-H1437; first compound 0.03162 µM): 0.787
relative viability (NCI-H1437; first compound 0.1 µM): 1.01
relative viability (NCI-H1437; first compound 0.3162 µM): 0.869
relative viability (NCI-H1437; first compound 1 µM): 1.02
relative viability (NCI-H1734; first compound 0.01 µM): 0.837
relative viability (NCI-H1734; first compound 0.03162 µM): 0.676
relative viability (NCI-H1734; first compound 0.1 µM): 0.869
relative viability (NCI-H1734; first compound 0.3162 µM): 0.612
relative viability (NCI-H1734; first compound 1 µM): 0.458
relative viability (NCI-H1792; first compound 0.01 µM): 1.06
relative viability (NCI-H1792; first compound 0.03162 µM): 1
relative viability (NCI-H1792; first compound 0.1 µM): 0.975
relative viability (NCI-H1792; first compound 0.3162 µM): 0.646
relative viability (NCI-H1792; first compound 1 µM): 1.12
relative viability (NCI-H2009; first compound 0.01 µM): 1.04
relative viability (NCI-H2009; first compound 0.03162 µM): 1.13
relative viability (NCI-H2009; first compound 0.1 µM): 1.07
relative viability (NCI-H2009; first compound 0.3162 µM): 0.954
relative viability (NCI-H2009; first compound 1 µM): 0.38
relative viability (NCI-H2087; first compound 0.01 µM): 0.906
relative viability (NCI-H2087; first compound 0.03162 µM): 0.879
relative viability (NCI-H2087; first compound 0.1 µM): 1.02
relative viability (NCI-H2087; first compound 0.3162 µM): 0.825
relative viability (NCI-H2087; first compound 1 µM): 0.846
relative viability (NCI-H2170; first compound 0.01 µM): 1.2
relative viability (NCI-H2170; first compound 0.03162 µM): 1.26
relative viability (NCI-H2170; first compound 0.1 µM): 1.24
relative viability (NCI-H2170; first compound 0.3162 µM): 1.28
relative viability (NCI-H2170; first compound 1 µM): 1
relative viability (NCI-H2228; first compound 0.01 µM): 0.423
relative viability (NCI-H2228; first compound 0.03162 µM): 0.588
relative viability (NCI-H2228; first compound 0.1 µM): 0.461
relative viability (NCI-H2228; first compound 0.3162 µM): 0.436
relative viability (NCI-H2228; first compound 1 µM): 0.208
relative viability (NCI-H2405; first compound 0.01 µM): 0.94
relative viability (NCI-H2405; first compound 0.03162 µM): 0.802
relative viability (NCI-H2405; first compound 0.1 µM): 0.841
relative viability (NCI-H2405; first compound 0.3162 µM): 0.819
relative viability (NCI-H2405; first compound 1 µM): 0.398
relative viability (NCI-H596; first compound 0.01 µM): 0.991
relative viability (NCI-H596; first compound 0.03162 µM): 0.942
relative viability (NCI-H596; first compound 0.1 µM): 1.02
relative viability (NCI-H596; first compound 0.3162 µM): 1.11
relative viability (NCI-H596; first compound 1 µM): 0.863
relative viability (NCI-H647; first compound 0.01 µM): 1.15
relative viability (NCI-H647; first compound 0.03162 µM): 1.11
relative viability (NCI-H647; first compound 0.1 µM): 0.941
relative viability (NCI-H647; first compound 0.3162 µM): 0.546
relative viability (NCI-H647; first compound 1 µM): 0.105
relative viability (NCI-H661; first compound 0.01 µM): 0.952
relative viability (NCI-H661; first compound 0.03162 µM): 0.87
relative viability (NCI-H661; first compound 0.1 µM): 1.08
relative viability (NCI-H661; first compound 0.3162 µM): 0.99
relative viability (NCI-H661; first compound 1 µM): 0.886
relative viability (SK-LU-1; first compound 0.01 µM): 0.991
relative viability (SK-LU-1; first compound 0.03162 µM): 0.714
relative viability (SK-LU-1; first compound 0.1 µM): 0.38
relative viability (SK-LU-1; first compound 0.3162 µM): 0.226
relative viability (SK-LU-1; first compound 1 µM): 0.285
relative viability (SK-MES-1; first compound 0.01 µM): 1.05
relative viability (SK-MES-1; first compound 0.03162 µM): 0.966
relative viability (SK-MES-1; first compound 0.1 µM): 1.08
relative viability (SK-MES-1; first compound 0.3162 µM): 0.999
relative viability (SK-MES-1; first compound 1 µM): 0.614
